Measured values published in US11535597B2, “Photoreactive ligands and uses thereof” (The Scripps Research Institute, priority 2017, dated 2022).

Tested on: proteins in HEK293T cells
Assay: MS-based mapping of FFF probe-modified peptides (isoTOP, sites of labeling)
Type: binding, human
Method: Preparation and analysis was adapted from methods previously reported. In brief, for global mapping of fragment probe-modified peptides, separate 10 cm dishes of cells were treated with probes (200-250 μM) in 3.0 mL of DMEM (serum-free) and (if applicable) competitor ligands, proteomes harvested and subjected to click chemistry conditions with either light or heavy isotopically labeled biotin-TEV-azide (10 μL of 5 mM stocks in DMSO, final concentration=100 μM), TCEP, ligand and CuSO4 as detailed above. The samples were allowed to react for 1 h at which point the samples were centrifuged (16,000 g, 5 min, 4° C.). The resulting pellets were sonicated in ice-cold methanol (500 μL) and the resuspended light- and heavy-labeled samples were then combined and centrifuged (16,000 g, 5 min, 4° C.). The pellets were then solubilized in PBS containing 1.2% SDS (1 mL) with sonication and heating (5 min, 95° C.). Samples were transferred to falcon tubes containing DPBS (5 mL), to which a 100 μL of streptavidin-agarose beads slurry was added. After incubation, the beads (3 hr) were pelleted by centrifugation (1,400 g, 3 min) and were washed (2×10 mL PBS and 2×10 mL water). The beads were transferred to eppendorf tubes with 1 mL DPBS, centrifuged (1,400 g, 3 min), and resuspended in PBS containing 6 M urea. To this was added 10 mM DTT (25 μL of a 200 mM stock in water) and the beads were incubated at 65° C. for 15 mins. 20 mM iodoacetamide (25 μL of a 400 mM stock in water) was then added and allowed to react at 37° C. for 30 mins with shaking. The bead mixture was diluted with 900 μL PBS, pelleted by centrifugation (1,400 g, 3 min), and resuspended in 200 μL 2M urea (DPBS) containing trypsin and CaCl2 as described above. The beads were separated from the digest by centrifugation (1,000 g, 1 min), washed (2×1 mL PBS and 2×1 mL water) and then transferred to fresh eppendorfs with 1 mL water. The washed beads were washed once further in 150 μL TEV buffer (50 mM Tris, pH 8, 0.5 mM EDTA, 1 mM DTT) by centrifugation (1,400 g, 3 min) and the resuspended in 150 μL TEV buffer. 5 μL TEV protease (80 μM) was added and the reactions were rotated overnight at 29° C. The TEV digest was separated from the beads by centrifugation (1,400 g, 3 min) and the beads were washed once with water (100 μL). The samples were then acidified to a final concentration of 5% (v/v) formic acid and stored at −80° C. prior to analysis.
The resulting probe-modified peptides were collected for MS analysis, which was performed as described above with differences in the salt bumps applied in the chromatographic gradients which in this case were 0%, 30%, 60%, 90% and 100% NH4OAc (500 μM). The protein identification searches of the MS data were performed with the following changes applied to identify the peptides modified with the corresponding fragment probe and the cleaved TEV tag. All amino acids were considered as possible residues for modification. To facilitate the computational searches, sets of up to 3 amino acids were searched using ProLuCID and filtered with DTASelect as described above. […] The isoTOP ratios for probe labeled peptides were quantified using the in-house software CIMAGE.
For each protein in the site-of-labeling dataset, the UniProtKB accession number was used to map and collect relevant structures from the RCSB Protein Data Bank (PDB) fulfilling the following criteria: structures determined by X-ray crystallography, wild-type protein, Homo sapiens as the sole source organism. […] Fpocket 2.0 was used to detect potential binding pockets for the resultant structures with all parameters set at recommended default. Pockets with volume less than 500 Å^3 were removed from output prior to further analysis. Residues surrounding fpocket predicted binding pockets for each protein were collected to determine the number of residues overlapping with isoTOP peptides.

C#CCCC1(CCC(=O)Nc2ccc(C3CCNCC3)cc2)N=N1 [probe 9, 3-(3-(But-3-yn-1-yl)-3H-diazirin-3-yl)-N-(4-(piperidin-4-yl)phenyl)propanamide]
Labeled Peptide of HEXA Beta-hexosaminidase subuit alpha (Accession P06865, residues of probe-labeled peptide, family Enzymes): 489-499
Labeled Peptide of GAA Lysosomal alpha-glucosidase (Accession P10253, residues of probe-labeled peptide, family Enzymes): 855-870
Labeled Peptide of GLB1 Beta-galactosidase (Accession P16278, residues of probe-labeled peptide, family Enzymes): 286-299
Labeled Peptide (HEXA Beta-hexosaminidase subunit alpha, residues of probe-modified peptide): 489-499
Labeled Peptide (HSP90B1 Endoplasmin, residues of probe-modified peptide): 117-135
Labeled Peptide (LGALS3BP Galectin-3-binding protein (Q08380), residues of the probe-labeled peptide): 522-541
Labeled Peptide (MAN2B1 Lysosomal alpha-mannosidase (O00754), residues of the probe-labeled peptide): 614-638
Labeled Peptide (MAN2B2 Epididymis specific alpha-mannosidase (Q9Y2E5), residues of the probe-labeled peptide): 642-664
Labeled Peptide (NAGLU Alpha-N-acetylglucosaminidase (P54802), residues of the probe-labeled peptide): 566-580
Labeled Peptide (P4HB Protein disulfide-isomerase (P07237), residues of the probe-labeled peptide): 171-195
Labeled Peptide (P00338 LDHA L-lactate dehydrogenase A chain): 43-57
Labeled Peptide (P06865 HEXA Beta-hexosaminidase subunit alpha): 489-499
Labeled Peptide (P07339 CTSD Cathepsin D): 236-253
Labeled Peptide (P14625 HSP90B1 Endoplasmin): 117-135
Labeled Peptide (P16278 GLB1 Beta-galactosidase): 286-299
Labeled Peptide (residues) of SMYD3 SET and MYND domain-containing protein 3 (Q9H7B4, peptide DQYCLECDCFR, PDB 5HQ8): 255-265
Labeled Peptide (protein ATP1A1 (P05023), residues of probe-labeled peptide): 894-911
Labeled Peptide (protein C19orf6 Membralin (Q4ZIN3), residues of probe-labeled peptide): 254-271
Labeled Peptide (protein CCT6A T-complex protein 1 subunit zeta (P40227), residues of probe-labeled peptide): 400-424
Labeled Peptide (protein CLN5 Ceroid-lipofuscinosis neuronal protein 5 (O75503), residues of probe-labeled peptide): 74-96
Labeled Peptide (protein CPVL Probable serine carboxypeptidase CPVL (Q9H3G5), residues of probe-labeled peptide): 195-208
Labeled Peptide (protein CTSD Cathepsin D, residues of probe-labeled peptide): 236-253
Labeled Peptide (protein CTSD Cathespin D (P07339), residues of probe-labeled peptide): 236-253
Labeled Peptide (protein DNASE2 Deoxyribonuclease-2-alpha (O00115), residues of probe-labeled peptide): 173-202
Labeled Peptide (protein ECHDC1 Ethylmalonyl-CoA decarboxylase (Q9NTX5), residues of probe-labeled peptide): 272-283
Labeled Peptide (protein EIF4H Eukaryotic translation initiation factor 4H (Q15056), residues of probe-labeled peptide): 97-109
Labeled Peptide (protein FARSB Phenylalanine--tRNA ligase beta subunit, residues of probe-labeled peptide): 72-82
Labeled Peptide (protein FARSB Phenylalanini--tRNA ligase beta subunit (Q9NSD9), residues of probe-labeled peptide): 72-82
Labeled Peptide (protein GLB1 Beta-galactosidase, residues of probe-labeled peptide): 286-299
Labeled Peptide (protein LDHA L-lactate dehydrogenase A chain, residues of the probe-labeled peptide): 43-57
Labeled Peptide (protein NAGLU Alpha-N-acetylglucosaminidase, residues of the probe-labeled peptide): 566-580
Labeled Peptide (protein P4HB Protein disulfide-isomerase, residues of the probe-labeled peptide): 171-195
Labeled Peptide (protein P46977 STT3A Dolichyl-diphosphooligosaccharide--protein glycosy): 572-595
Labeled Peptide (protein PCYOX1 Prenylcysteine oxidase 1 (Q9UHG3)): 292-304
Labeled Peptide (protein PDIA4 Protein disulfide-isomerase A4 (P13667)): 486-499
Labeled Peptide (protein PHB Prohibitin (P35232)): 220-239
Labeled Peptide (protein Q8IXU6 SLC35F2 Solute carrier family 35 member F2): 188-221
Labeled Peptide (protein Q8TCJ2 STT3B Dolichyl-diphosphooligosaccharide--protein glycosy): 651-674
Labeled Peptide (protein Q9BVK6 TMED9 Transmembrane emp24 domain-containg protein 9): 49-65
Labeled Peptide (protein Q9H7B4 SMYD3 SET and MYND domain-containing protein 3): 255-265
Labeled Peptide (protein Q92973 TNPO1 Transportin-1): 273-298
Labeled Peptide (protein RALA Ras-related protein Ral-A (P11233)): 28-47
Labeled Peptide (protein SMYD3 SET and MYND domain-containing protein 3, residues of the probe-modified peptide): 255-265
Labeled Peptide (protein TNPO1 Transportin-1, residues of the probe-modified peptide): 273-298
